System: penile erection
Experiment: Penile erection in rat
Assay type: in vivo
Conditions: male Fischer 344 rats, intraperitoneal, observed 60 minutes, mean number
Procedure: (This test was carried out according to a similar manner to that described in Jpn. J. Pharmacol., Vol. 64, 147–153 (1994))
Male Fischer 344 rats at the age of 8 weeks (n=7) were used. All rats were handled 3 minutes a day for three successive days before the tests. The rats were tested in groups of seven and various doses of the test compound were given in semi-randomized order. The test compounds were suspended in 0.5% methyl-cellulose immediately before use, and given intraperitoneally in a volume of 1 ml/kg just before the start of test. […] A mirror was situated behind each box […]. Data was expressed as a mean number.

Row | SMILES | Penile Erection (Number/hr) (dose 0.32 mg/kg) | Penile Erection (Number/hr) (dose 0.1 mg/kg)
1 | O=C(Nc1ccc(F)cc1)N1CC=CCC1 [Example 2, 1-(4-fluorophenylcarbamoyl)-1,2,3,6-tetrahydropyridine] | 0.57 | –
2 | O=C(NC1CCc2ccccc2C1)c1ccc(F)cc1 (stereo not shown) [Example 6, 2-(4-Fluorobenzoylamino)-1,2,3,4-tetrahydronaphthalene] | 0.60 | –
3 | CC1=CCC(NC(=O)c2ccncc2)CC1 (stereo not shown) [Example 7, 1-(pyridin-4-ylcarbonylamino)-4-methylcyclohex-3-ene] | – | 0.71
4 | O=C(NC1CCc2ccccc2C1)c1ccncc1 (stereo not shown) [Example 8, 2-(Pyridin-4-ylcarbonylamino)-1,2,3,4-tetrahydro-naphthalene] | – | 0.60

Source: patent publication US7037942B2, “Amide compounds for the potentiation of cholinergic activity” (Astellas Pharma Inc., priority 1999, dated 2006)
